Measurements from patent US4929601A, “Tripeptides useful as immunostimulants as well as in the prevention of metastases” (Ellem Industria Farmaceutica, S.p.A., priority 1987, dated 1990).

Key:
[1] = test system: B16-BL6 murine melanoma cells; experiment: Antimetastatic activity: pulmonary colonization by melanoma cells inoculated in mice; assay type: in vivo, female C57BL/6 mice
Source text: The capacity of the tripeptide […] of inhibiting the pulmonary colonization by B16-BL6 murine melanoma cells inoculated in female C57BL/6 mice having an average body weight of 20 g (10 animals per group) has been evaluated. […] Fourteen days later, the animals have been sacrificed, the lungs have been withdrawn and examined after formalin fixation for the presence of surface melanoma colonies. A group of control animals has only been treated with the tumour cell suspension.

[2] = test system: spleen cells of normal mice; experiment: Induction of Thy 1.2 antigen in spleen cells of normal mice; assay type: cell-based
Source text: The capacity of the tripeptide Arg-Gly-Asp to induce in vitro the differentiation of T cell precursors into lymphocytes expressing T cell markers has been tested by evidencing the induction of Thy 1.2 membrane antigen.
Spleen cells of normal mice have been used as source of "null" cells.
Mice were killed by cervical dislocation.
Spleens were aseptically removed and finely minced with forceps in Hank's balanced salt solution (HBSS) (Gibco Ltd, Paisley, Scotland). A suspension of single cells was obtained through filtration on a fine mesh wire sieve. Mononuclear cells (MNC) have been isolated through differential centrifugation on Lymphoprep (Nyegaard, Oslo, Norway) with continuous density gradient for 20 minutes at 450 g.
After 3 washes in HBSS, MNC were suspended at a concentration of 5×10^6 cells/ml in 199 medium (Gibco Ltd) supplemented with 1% BSA (Cohn Fr. V. Sigma, St. Louis), L-glutamine 2 mM and 10 mcg/ml of gentamycin sulfate (Schering, Klworth, N.J., U.S.A.) (TC 199-BSA). The cells have been used when their viability was over 95% at the Trypan Blue exclusion test.
Two hundred μl of the spleen MNC suspension have been mixed with the same volume of the tripeptide opportunely diluted with TC 199-BSA medium. The control cells have only been treated with the medium TC 199-BSA. […] containing 5% CO2, then washed twice with HBSS containing 5% heat-inactivated neonatal calf serum (Gibco) (HBSSS-CS) and finally resuspended in the same medium at a concentration of 10^6 cells/ml.
The expression of Thy 1.2 antigen was analyzed by IF using and anti-Thy 1.2 monoclonal antibody conjugated with fluorescein (Bio-Yeda, supplied by Technogenetics, S. Mauro Torinese, Italy) at the concentration of 2 mcg/10^6 cells. The cells have been incubated with the antibody for 30 minutes at 4° C.
After three washes in HBSS, the cells have been resuspended in the same medium and observed with a Leitz Orthomat microscope equipped with epiillumination.
At least 300 cells have been counted in each evaluation.

[3] = test system: PHA-stimulated human T lymphocytes; experiment: RNA synthesis in PHA-stimulated human T lymphocytes in vitro (3H-uridine); assay type: cell-based; details: for RNA synthesis, 3H-uridine c.p.m. (mean): control 3835
Protocol: Human T lymphocytes, incubated in vitro for 24 hours in presence of 0.5% phytohemagglutinin (PHA) and different concentrations of the tripeptides under examination, have been analyzed for RNA synthesis (cell activation) by means of 3H-uridine labelling.

Human T lymphocytes [4] = experiment: Effect on cell cycle (propidium iodide, flow cytometer); assay type: cell-based; details: 1 μg/ml, 72 hours with PHA
Protocol: Human T lymphocytes have been incubated for 72 hours in presence of PHA and the tripeptides under examination (1 μg/ml). DNA has then been stained with propidium iodide and cells have been analyzed with a flow cytometer.

Human T lymphocytes [5] = experiment: Stimulation of lymphokine production in vitro: BCGF activity of supernatants; assay type: cell-based
Protocol: Human T lymphocytes have been incubated with PHA and with or without the peptides under examination for 24 hours (in the case of IL-2) or 72 hours (in the case of BCGF).
(§1) The supernatants have been collected, filtered (0.2 μm) and assayed for the presence of IL-2 or BCGF activity, by adding them at different concentrations to fresh T lymphocytes or to long term cultured B cells. The proliferating activity of these cells, dependent on the presence of the respective growth factor, has been evaluated through 3H-thymidine incorporation.

[6] = test system: pure human T lymphocytes, without macrophages; experiment: Lymphokine production by pure human T lymphocytes without macrophages (+IL-1): BCGF activity; assay type: cell-based
Source text: as §1
The lymphokine production by human T lymphocytes purified through […] on nylon wool column has been evaluated with the same methods as in the previous experiment.
In order to obviate the lack of macrophages, recombinant IL-1 β (Genzyme) has been added at the concentration of 25 Units/ml.

[7] = Toxicological trials: LD50 in mice; details: mouse, in vivo, ip; i.p. in mice

SMILES: N=C(N)NCCC[C@H](N)C(=O)NCC(=O)N[C@@H](CC(=O)O)C(=O)O [ARG--GLY--ASP, L-Arginyl-glycyl-L-aspartic acid]
- mean number of metastases ([1]; 3 mg/mouse i.v. together with 2×10^5 melanoma cells, lungs after 14 days, controls above 500/mouse): 173 /mouse
- change of mean number of metastases vs controls ([1]; 3 mg/mouse i.v., 7×10^4 tumour cells): -69%
- mean number of metastases ([1]; 3 mg/mouse i.v., 7×10^4 tumour cells, controls 21.6): 6.8
- VARIATION of % THY 1.2 + cells ([2]; 0.1 μg/ml, 3 hours of incubation): +3.3
- % THY 1.2 + CELLS ([2]; 0.1 μg/ml, 3 hours of incubation, control 22.0): 25.3%
- VARIATION of % THY 1.2 + cells ([2]; 1 μg/ml, 3 hours of incubation): +5.1
- % THY 1.2 + CELLS ([2]; 1 μg/ml, 3 hours of incubation, control 22.0): 27.1%
- VARIATION of % THY 1.2 + cells ([2]; 10 μg/ml, 3 hours of incubation): +9.4
- % THY 1.2 + CELLS ([2]; 10 μg/ml, 3 hours of incubation, control 22.0): 31.4%
- VARIATION of % THY 1.2 + cells ([2]; 10 μg/ml, 18 hours of incubation): +9.5
- % THY 1.2 + CELLS ([2]; 10 μg/ml, 18 hours of incubation, control 17.0): 26.5%
- VARIATION of % THY 1.2 + cells ([2]; 100 μg/ml, 3 hours of incubation): +7.4
- % THY 1.2 + CELLS ([2]; 100 μg/ml, 3 hours of incubation, control 22.0): 29.4%
- VARIATION of % THY 1.2 + cells ([2]; 100 μg/ml, 18 hours of incubation): +4.7
- % THY 1.2 + CELLS ([2]; 100 μg/ml, 18 hours of incubation, control 17.0): 21.7%
- VARIATION of % THY 1.2 + cells ([2]; 200 μg/ml, 3 hours of incubation): +5.9
- % THY 1.2 + CELLS ([2]; 200 μg/ml, 3 hours of incubation, control 22.0): 27.9%
- optimum concentration for Thy 1.2 induction ([2]; in vitro): 10 µg/mL
- PHA-induced human T lymphocyte activation (RNA synthesis) ([3]; 24 hours, 0.5% PHA): able to increase
- RNA synthesis Δ % ([3]; peptide 0.0001 mcg/ml): -3%
- RNA synthesis, 3H-uridine c.p.m. (mean) ([3]; peptide 0.0001 mcg/ml, 24 hours, 0.5% PHA): 3703 c.p.m.
- RNA synthesis Δ % ([3]; peptide 0.001 mcg/ml): -2%
- RNA synthesis, 3H-uridine c.p.m. (mean) ([3]; peptide 0.001 mcg/ml, 24 hours, 0.5% PHA): 3741 c.p.m.
- RNA synthesis Δ % ([3]; peptide 0.01 mcg/ml): +11%
- RNA synthesis, 3H-uridine c.p.m. (mean) ([3]; peptide 0.01 mcg/ml, 24 hours, 0.5% PHA): 4259 c.p.m.
- RNA synthesis Δ % ([3]; peptide 0.1 mcg/ml): +18%
- RNA synthesis, 3H-uridine c.p.m. (mean) ([3]; peptide 0.1 mcg/ml, 24 hours, 0.5% PHA): 4516 c.p.m.
- RNA synthesis Δ % ([3]; peptide 1 mcg/ml): +6%
- RNA synthesis, 3H-uridine c.p.m. (mean) ([3]; peptide 1 mcg/ml, 24 hours, 0.5% PHA): 4068 c.p.m.
- RNA synthesis Δ % ([3]; peptide 10 mcg/ml): +9%
- RNA synthesis, 3H-uridine c.p.m. (mean) ([3]; peptide 10 mcg/ml, 24 hours, 0.5% PHA): 4199 c.p.m.
- G2 + M % cells, difference from T + PHA (Human T lymphocytes [4]): +6.12
- Go-Gl % cells, difference from T + PHA (Human T lymphocytes [4]): -5.67
- S % cells, difference from T + PHA (Human T lymphocytes [4]): -1.15
- CELL PHASES G2 + M % CELLS (Human T lymphocytes [4]; T + PHA 6.02): 12.14%
- CELL PHASES S % CELLS (Human T lymphocytes [4]; T + PHA 30.61): 29.46%
- CELL PHASES Go-Gl % CELLS (Human T lymphocytes [4]; T + PHA 63.36): 57.69%
- BCGF activity Δ % (Human T lymphocytes [5]; 3.125% of supernatant): +257%
- BCGF ACTIVITY (mean) (Human T lymphocytes [5]; 3.125% of supernatant, T + PHA 1345): 4800 COUNTS PER MINUTE
- BCGF activity Δ % (Human T lymphocytes [5]; 6.25% of supernatant): +299%
- BCGF ACTIVITY (mean) (Human T lymphocytes [5]; 6.25% of supernatant, T + PHA 2156): 8611 COUNTS PER MINUTE
- BCGF activity Δ % (Human T lymphocytes [5]; 12.5% of supernatant): +206%
- BCGF ACTIVITY (mean) (Human T lymphocytes [5]; 12.5% of supernatant, T + PHA 5402): 16550 COUNTS PER MINUTE
- BCGF activity Δ % (Human T lymphocytes [5]; 25% of supernatant): +24%
- BCGF ACTIVITY (mean) (Human T lymphocytes [5]; 25% of supernatant, T + PHA 15030): 18645 COUNTS PER MINUTE
- BCGF activity Δ % (Human T lymphocytes [5]; 50% of supernatant): +19%
- BCGF ACTIVITY (mean) (Human T lymphocytes [5]; 50% of supernatant, T + PHA 17297): 20508 COUNTS PER MINUTE
- stimulation of the growth factor production (Human T lymphocytes [5]; IL-2 and BCGF, slightly lower than Arg-Lys-Glu, higher than Arg-Lys-Asp): marked effect of stimulation
- BCGF activity Δ % ([6]; 1 mcg/ml, 3.125% of supernatant): +94%
- BCGF ACTIVITY c.p.m. ([6]; 1 mcg/ml, 3.125% of supernatant, T + PHA + IL-1 318): 618 c.p.m.
- BCGF activity Δ % ([6]; 1 mcg/ml, 6.25% of supernatant): +9%
- BCGF ACTIVITY c.p.m. ([6]; 1 mcg/ml, 6.25% of supernatant, T + PHA + IL-1 582): 634 c.p.m.
- BCGF activity Δ % ([6]; 1 mcg/ml, 12.5% of supernatant): +141%
- BCGF ACTIVITY c.p.m. ([6]; 1 mcg/ml, 12.5% of supernatant, T + PHA + IL-1 1104): 2663 c.p.m.
- BCGF activity Δ % ([6]; 1 mcg/ml, 25% of supernatant): +106%
- BCGF ACTIVITY c.p.m. ([6]; 1 mcg/ml, 25% of supernatant, T + PHA + IL-1 2507): 5172 c.p.m.
- BCGF activity Δ % ([6]; 1 mcg/ml, 50% of supernatant): +95%
- BCGF ACTIVITY c.p.m. ([6]; 1 mcg/ml, 50% of supernatant, T + PHA + IL-1 5056): 9837 c.p.m.
- BCGF activity Δ % ([6]; 10 mcg/ml, 3.125% of supernatant): +147%
- BCGF ACTIVITY c.p.m. ([6]; 10 mcg/ml, 3.125% of supernatant, T + PHA + IL-1 318): 784 c.p.m.
- BCGF activity Δ % ([6]; 10 mcg/ml, 6.25% of supernatant): +49%
- BCGF ACTIVITY c.p.m. ([6]; 10 mcg/ml, 6.25% of supernatant, T + PHA + IL-1 582): 866 c.p.m.
- BCGF activity Δ % ([6]; 10 mcg/ml, 12.5% of supernatant): +171%
- BCGF ACTIVITY c.p.m. ([6]; 10 mcg/ml, 12.5% of supernatant, T + PHA + IL-1 1104): 2997 c.p.m.
- BCGF activity Δ % ([6]; 10 mcg/ml, 25% of supernatant): +173%
- BCGF ACTIVITY c.p.m. ([6]; 10 mcg/ml, 25% of supernatant, T + PHA + IL-1 2507): 6849 c.p.m.
- BCGF activity Δ % ([6]; 10 mcg/ml, 50% of supernatant): +125%
- BCGF ACTIVITY c.p.m. ([6]; 10 mcg/ml, 50% of supernatant, T + PHA + IL-1 5056): 11364 c.p.m.
- effect on lymphokine production by pure T lymphocytes ([6]; both for IL-2 and BCGF, IL-1 β 25 Units/ml): comparable with that of the other reference compounds
- LD50 [7]: > 1000 mg/kg
